Measured values published in US10307413B2, “Tetrahydro- and dihydro-isoquinoline PRMT5 inhibitors and uses thereof” (Epizyme, Inc., priority 2013, dated 2019).
Like-named read-outs stand apart in the source and are kept apart here.

Assays:
[1] = system: Z-138 cell line; assay: Z-138 Proliferation Assay (Cell Titer Glo, 5 days); format: cell-based; conditions: Homo sapiens, 120 h, Z-138 cells, 5 days, read-out: Proliferation EC50
In short: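 Z-138 cells exposed 5 days at 37 °C, 5% CO2 to nine-point 3-fold dilutions (final top 20 μM, 0.2% DMSO), in triplicate. Viability read as ATP by CellTiter-Glo luminescence; IC50 from 4-parameter fit of normalized dose-response curves.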

[2] = system: symmetric di-methyl arginine in Z-138 cells; assay: Z-138 Methylation Assay (In Cell Western for symmetric di-methyl arginine and DNA content); format: cell-based; conditions: Homo sapiens, read-out: ICW EC50
In short: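 Z-138 cells (50,000 cells/mL) treated with compound 96 h at 37 °C, then fixed and stained for symmetric di-methyl arginine (800 nm) with DRAQ5 DNA counterstain (700 nm) on Licor Odyssey.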

[3] = target: PRMT5/MEP50 (Homo sapiens (Human), UniProt O14744); assay: PRMT5 Biochemical Assay (PRMT5/MEP50 enzyme assay on peptide substrate, 3H-SAM Flashplate)
In short: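 Radiometric methylation of a biotin-tagged H4(1-15) peptide by human PRMT5/MEP50 from baculovirus/Sf9, with ³H-SAM incorporation read on streptavidin Flashplates. Buffer: Bicine pH 7.6, TCEP, BSG, Tween20; compound preincubated 30 min at 25 °C; stopped with 600 µM final unlabeled SAM. DMSO and SAH controls; IC50 from fitted % inhibition.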

PRMT5/MEP50, sequence (O14744 other isoform, or with tags, fused parts or gaps): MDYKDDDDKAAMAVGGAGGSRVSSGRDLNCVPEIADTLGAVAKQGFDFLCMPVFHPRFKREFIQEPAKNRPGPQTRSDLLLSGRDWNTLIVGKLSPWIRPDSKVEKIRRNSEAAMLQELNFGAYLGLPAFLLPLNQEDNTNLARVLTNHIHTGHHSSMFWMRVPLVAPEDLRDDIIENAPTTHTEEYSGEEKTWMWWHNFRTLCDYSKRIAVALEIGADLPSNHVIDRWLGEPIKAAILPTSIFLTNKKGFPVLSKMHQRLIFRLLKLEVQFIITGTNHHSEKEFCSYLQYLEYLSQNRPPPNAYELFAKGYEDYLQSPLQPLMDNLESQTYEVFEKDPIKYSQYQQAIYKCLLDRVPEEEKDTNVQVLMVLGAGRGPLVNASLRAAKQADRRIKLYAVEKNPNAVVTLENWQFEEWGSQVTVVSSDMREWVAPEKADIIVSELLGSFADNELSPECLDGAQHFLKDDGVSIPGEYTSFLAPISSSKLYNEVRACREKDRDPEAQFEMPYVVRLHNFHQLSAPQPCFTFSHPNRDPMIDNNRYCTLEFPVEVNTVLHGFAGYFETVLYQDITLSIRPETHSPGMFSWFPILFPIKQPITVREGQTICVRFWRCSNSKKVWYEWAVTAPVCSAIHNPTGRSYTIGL
PRMT5/MEP50, sequence (Q9BQA1 other isoform, or with tags, fused parts or gaps partner): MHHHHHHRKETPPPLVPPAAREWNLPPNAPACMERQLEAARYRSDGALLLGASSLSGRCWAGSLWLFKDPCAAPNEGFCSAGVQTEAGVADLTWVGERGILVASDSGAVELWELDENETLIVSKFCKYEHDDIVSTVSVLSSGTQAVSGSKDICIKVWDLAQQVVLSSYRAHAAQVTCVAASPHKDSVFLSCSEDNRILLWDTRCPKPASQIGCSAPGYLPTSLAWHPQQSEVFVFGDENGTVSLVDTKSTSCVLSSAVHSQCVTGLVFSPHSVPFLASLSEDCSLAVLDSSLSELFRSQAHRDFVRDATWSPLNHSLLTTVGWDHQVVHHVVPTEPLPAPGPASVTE

Row | Structure (SMILES) | EC50 ([2]; In Cell Western methylation) [nM] | IC50 ([3]; PRMT5 biochemical assay) [nM] | EC50 [2] [nM] | IC50 [3] [nM] | EC50 ([1]; Cell Titer Glo) [nM] | EC50 [1] [nM]
1 | CC(=O)N1CC(Nc2cc(C(=O)NC[C@H](O)CN3CCc4ccccc4C3)cnn2)C1 [Compound 629] | 101 to 1000 | < 100 |  |  | 1000 to 10000 | 
2 | CC1(C)c2ccccc2CCN1C[C@@H](O)CNC(=O)c1cc(NC2COC2)ncn1 [Compound 588] | > 1000 | 1000 to 10000 |  |  | > 5000 | 
3 | O=C(NC[C@H](O)CN1CCc2ccccc2C1)c1cc(NC2CCNCC2)ccn1 [Compound 549] | 101 to 1000 | < 100 |  |  | > 5000 | 
4 | O=C(NC[C@H](O)CN1CCc2ccccc2C1)c1ccnc(Nc2ccccn2)c1 [Compound 382] |  |  | < 100 | < 100 |  | 101 to 1000
5 | O=C(NC[C@H](O)CN1CCc2ccccc2C1)c1cn2nc(Cl)ccc2n1 [Compound 404] | 101 to 1000 | < 100 |  |  | 10000 to 50000 | 
6 | CSCCN1CC(Nc2cc(C(=O)NC[C@H](O)CN3CCc4ccccc4C3)ncn2)C1 [Compound 568] | 101 to 1000 | < 100 |  |  | 1000 to 10000 | 
7 | O=C(NC[C@H](O)CN1CCc2ccccc2C1)c1cc(NC2CCC2)nc(N2CCOCC2)c1 [Compound 349] |  |  | < 100 | < 100 |  | < 100
8 | CS(=O)(=O)CCNc1cc(C(=O)NC[C@H](O)CN2CCc3ccccc3C2)ncn1 [Compound 555] | 101 to 1000 | < 100 |  |  | 1000 to 10000 | 
9 | COc1nc(NC2CNC2)cc(C(=O)NC[C@H](O)CN2CCc3ccccc3C2)n1 [Compound 501] | 101 to 1000 | < 100 |  |  | 1000 to 10000 | 
10 | O=C(NCC(O)CN1CCc2ccccc2C1)c1ccccc1-c1ccccn1 (stereo not drawn) [Compound 12, N-(3-(3,4-dihydroisoquinolin-2(1H)-yl)-2-hydroxypropyl)-2-(pyridin-2-yl)benzamide] |  |  | 1000 to 10000 | 101 to 1000 |  | > 20000
11 | COC(CNC(=O)c1cc(NC2CCN(C)CC2)ncn1)CN1CCc2ccccc2C1 (stereo not drawn) [Compound 540] | > 1000 | 1000 to 10000 |  |  | > 5000 | 
12 | Cc1ccc2c(c1)CN(C[C@@H](O)CNC(=O)c1cc(NC3COC3)ncn1)CC2 [Compound 666] | 101 to 1000 | 101 to 1000 |  |  | > 5000 | 
13 | CNC(=O)CN1CC(Nc2cc(C(=O)NC[C@H](O)CN3CCc4ccccc4C3)ncn2)C1 [Compound 622] | 1000 to 10000 | < 100 |  |  | 1000 to 10000 | 
14 | O=C(NC[C@H](O)CN1CCc2ccccc2C1)c1ccnc(Nc2cc[nH]n2)c1 [Compound 381] |  |  | < 100 | < 100 |  | 1000 to 10000
15 | CC(=O)N1CC(Nc2cc(C(=O)NC(C)C(O)CN3CCc4ccccc4C3)ncn2)C1 (stereo not drawn) [Compound 524] | 101 to 1000 | 101 to 1000 |  |  | > 5000 | 
16 | CN(C[C@H](O)CN1CCc2ccccc2C1)C(=O)c1ccnc(N(C)C2CCOCC2)c1 [Compound 358] |  |  | 101 to 1000 | 1000 to 10000 |  | > 20000
17 | CC(=O)N1CCC(Nc2cc(C(=O)NC[C@H](O)CN3CCc4ccccc4C3)cc(N3CCN(C)CC3)n2)CC1 [Compound 612] | < 100 | < 100 |  |  | < 100 | 
18 | CN1CCC(Nc2cc(C(=O)NCC(C)(O)CN3CCc4ccccc4C3)ncn2)CC1 (stereo not drawn) [Compound 648] | > 1000 | 1000 to 10000 |  |  | > 5000 | 
19 | NC(=O)CN1CC(Nc2cc(C(=O)NC[C@H](O)CN3CCc4ccccc4C3)ncn2)C1 [Compound 621] | 1000 to 10000 | < 100 |  |  | 1000 to 10000 | 

Second part, led by results:

Row | EC50 ([2]; In Cell Western methylation) [nM] | IC50 ([3]; PRMT5 biochemical assay) [nM] | EC50 [2] [nM] | IC50 [3] [nM] | Structure (SMILES) | EC50 ([1]; Cell Titer Glo) [nM] | EC50 [1] [nM]
20 | < 100 | < 100 |  |  | CN(C)C(=O)[C@H]1CC[C@@H](Nc2cc(C(=O)NC[C@H](O)CN3CCc4ccccc4C3)ncn2)CC1 [Compound 598] | 1000 to 10000 | 
21 | < 100 | < 100 |  |  | CC(C)c1nc(NC2COC2)cc(C(=O)NC[C@H](O)CN2CCc3ccccc3C2)n1 [Compound 449] | 101 to 1000 | 
22 | < 100 | < 100 |  |  | CC(=O)N1CC[C@@H](Nc2cc(C(=O)NC[C@H](O)CN3CCc4ccccc4C3)ncn2)C1 [Compound 642] | 101 to 1000 | 
23 | < 100 | < 100 |  |  | CCCC(=O)N1CC(Nc2cc(C(=O)NC[C@H](O)CN3CCc4ccccc4C3)ccn2)C1 [Compound 503] | < 100 | 
24 | < 100 | < 100 |  |  | CC(C)CC(=O)N1CCC(Nc2cc(C(=O)NC[C@H](O)CN3CCc4ccccc4C3)ncn2)CC1 [Compound 409] | < 100 | 
25 | < 100 | < 100 |  |  | N[C@H]1CC[C@H](Nc2cc(C(=O)NC[C@H](O)CN3CCc4ccccc4C3)ncn2)CC1 [Compound 595] | > 5000 | 
26 | < 100 | < 100 |  |  | O=C(NC[C@H](O)CN1CCc2ccccc2C1)c1cc(NC2COC2)nc(N2CCC2)n1 [Compound 526] | 101 to 1000 | 
27 | < 100 | < 100 |  |  | CC(C)(C)C(=O)N1CCC(Nc2cc(C(=O)NC[C@H](O)CN3CCc4ccccc4C3)ccn2)CC1 [Compound 470] | < 100 | 
28 | < 100 | < 100 |  |  | O=C(NC[C@H](O)CN1CCc2ccccc2C1)c1ccnc(OCCNCC(F)(F)F)c1 [Compound 421] | 1000 to 10000 | 
29 | < 100 | < 100 |  |  | CNCCN(C)c1nc(NC2COC2)cc(C(=O)NC[C@H](O)CN2CCc3ccccc3C2)n1 [Compound 476] | 101 to 1000 | 
30 | < 100 | < 100 |  |  | CC(C)N1CCN(c2nc(NC3COC3)cc(C(=O)NC[C@H](O)CN3CCc4ccccc4C3)n2)CC1 [Compound 478] | < 100 | 
31 | < 100 | < 100 |  |  | O=C(NC[C@H](O)CN1CCc2ccccc2C1)c1cc(NC2CNC2)nc(N2CCOCC2)n1 [Compound 447] | 1000 to 10000 | 
32 | < 100 | < 100 |  |  | O=C(NC[C@H](O)CN1CCc2ccccc2C1)c1cc(NC2COC2)nc(N2CCNCC2)n1 [Compound 461] | < 100 | 
33 | < 100 | < 100 |  |  | CC(=O)N1CCC(Nc2cc(C(=O)NC[C@H](O)CN3CCc4cc(C)ccc4C3)ccn2)CC1 [Compound 682] | 101 to 1000 | 
34 | < 100 | < 100 |  |  | Cc1cnc(NC2CCN(CC(F)(F)F)C2)cc1C(=O)NC[C@H](O)CN1CCc2ccccc2C1 (stereo partly drawn) [Compound 402] | 1000 to 10000 | 
35 | < 100 | < 100 |  |  | O=C(NC[C@H](O)CN1CCc2ccccc2C1)c1cc(NC2CC3(COC3)C2)ncn1 [Compound 557] | < 100 | 
36 | < 100 | < 100 |  |  | CCC(=O)N1CC(Nc2cc(C(=O)NC[C@H](O)CN3CCc4ccccc4C3)ccn2)C1 [Compound 488] | < 100 | 
37 | < 100 | < 100 |  |  | CC(=O)N[C@H]1CC[C@@H](Nc2cc(C(=O)NC[C@H](O)CN3CCc4ccccc4C3)ncn2)CC1 [Compound 590] | 101 to 1000 | 
38 | < 100 | < 100 |  |  | CC(=O)N1CCC(Nc2cc(C(=O)NC[C@H](O)CN3CCc4cccc(C)c4C3)ccn2)CC1 [Compound 665] | < 100 | 
39 | < 100 | < 100 |  |  | O=C(NC[C@H](O)CN1CCc2ccccc2C1)c1cc(O)nc(NC2CCC2)c1 [Compound 434] | 101 to 1000 | 
40 | < 100 | < 100 |  |  | CC(=O)N1CC(Nc2cc(C(=O)NC[C@H](O)CN3CCc4ccccc4C3)nc(C)n2)C1 [Compound 450] | 101 to 1000 | 
